# What was measured:
# EGFR = EGFR (Homo sapiens, UniProt P00533); test: in vitro EGFR inhibition; type: biochemical
# tubulin = tubulin polymerization inhibition; type: biochemical; details: read-out: Tubulin polymerization IC50
# EGFR, sequence (P00533 25-1210): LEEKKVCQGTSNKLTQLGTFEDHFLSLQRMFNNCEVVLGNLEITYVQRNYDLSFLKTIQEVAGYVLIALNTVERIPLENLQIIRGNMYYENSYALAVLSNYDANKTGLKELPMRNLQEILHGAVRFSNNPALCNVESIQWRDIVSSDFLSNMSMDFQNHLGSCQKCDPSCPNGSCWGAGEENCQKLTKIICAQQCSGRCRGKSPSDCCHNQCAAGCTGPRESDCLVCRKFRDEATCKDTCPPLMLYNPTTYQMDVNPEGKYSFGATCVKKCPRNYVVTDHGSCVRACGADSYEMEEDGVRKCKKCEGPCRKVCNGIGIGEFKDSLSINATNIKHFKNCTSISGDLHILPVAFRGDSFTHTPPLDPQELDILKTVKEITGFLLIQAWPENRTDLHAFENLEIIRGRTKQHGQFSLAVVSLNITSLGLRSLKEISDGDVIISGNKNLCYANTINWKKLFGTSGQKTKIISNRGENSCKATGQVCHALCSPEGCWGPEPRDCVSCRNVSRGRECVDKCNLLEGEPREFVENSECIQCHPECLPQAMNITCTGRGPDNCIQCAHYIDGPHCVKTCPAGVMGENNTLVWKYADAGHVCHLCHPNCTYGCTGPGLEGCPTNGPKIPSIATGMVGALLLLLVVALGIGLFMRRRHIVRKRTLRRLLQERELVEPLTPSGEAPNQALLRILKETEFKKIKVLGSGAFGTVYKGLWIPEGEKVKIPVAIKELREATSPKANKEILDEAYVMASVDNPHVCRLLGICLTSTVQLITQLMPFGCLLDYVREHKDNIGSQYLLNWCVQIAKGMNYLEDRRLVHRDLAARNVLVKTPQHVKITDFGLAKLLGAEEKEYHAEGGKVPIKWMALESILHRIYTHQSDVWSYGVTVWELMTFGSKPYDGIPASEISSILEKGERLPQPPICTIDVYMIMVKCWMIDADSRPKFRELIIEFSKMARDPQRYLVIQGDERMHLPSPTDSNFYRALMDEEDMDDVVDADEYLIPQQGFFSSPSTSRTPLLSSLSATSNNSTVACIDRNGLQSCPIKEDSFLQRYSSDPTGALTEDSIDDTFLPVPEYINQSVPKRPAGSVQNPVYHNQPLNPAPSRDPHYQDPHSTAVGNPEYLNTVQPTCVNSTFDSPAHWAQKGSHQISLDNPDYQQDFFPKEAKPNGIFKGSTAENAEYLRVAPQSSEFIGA
IC50 (EGFR),IC50 (tubulin),Compound
90 ± 50 nM,3850 ± 90 nM,"O=C1Nc2ccc(Cl)cc2C12CC(c1ccc(O)cc1)=NN2 (stereo not drawn) [5a, 5-Chloro-5′-(4-hydroxyphenyl)-2′,4′-dihydrospiro[indoline-3,3′-pyrazol]-2-one]"
70 ± 90 nM,4350 ± 110 nM,"Nc1ccc(C2=NNC3(C2)C(=O)Nc2ccc(Cl)cc23)cc1 (stereo not drawn) [5b, 5′-(4-Aminophenyl)-5-chloro-2′,4′-dihydrospiro[indoline-3,3′-pyrazol]-2-one]"
80 ± 80 nM,,"COc1ccc(C2=NNC3(C2)C(=O)Nc2ccc(Cl)cc23)cc1 (stereo not drawn) [5c, 5-Chloro-5′-(4-methoxyphenyl)-2′,4′-dihydrospiro[indoline-3,3′-pyrazol]-2-one]"
40 ± 90 nM,,"O=C1Nc2ccc(Cl)cc2C12CC(c1ccc(Cl)cc1)=NN2 (stereo not drawn) [5d, 5-Chloro-5′-(4-chlorophenyl)-2′,4′-dihydrospiro[indoline-3,3′-pyrazol]-2-one]"

# The next lines start with the compound.
Compound,IC50 (EGFR),IC50 (tubulin)
"O=C1Nc2ccc(Cl)cc2/C1=C\C(=O)c1ccc(O)cc1 [4a, (E)-5-Chloro-3-(2-(4-hydroxyphenyl)-2-oxoethylidene)indolin-2-one]",100 ± 70 nM,
Nc1ccc(C(=O)C=C2C(=O)Nc3ccc(Cl)cc32)cc1 [4b],50 ± 60 nM,
Tubulin polymerization inhibitor II [reference compound],,4500 ± 130 nM

# From PMC12178155 (RSC Advances, 2025)
